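Cultured in 96-well plates, cells were exposed to test compound for 48 hours across five concentrations. GI50: concentration for 50% inhibition of growth. Definition used: TGI = concentration required for complete inhibition of growth.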
Legend:
Assay in all cases: inhibition of tumour cell growth, NCI panel, 48 h
786-0 renal = tested on: 786-0 renal
A498 renal = tested on: A498 renal
A549 NSCLC = tested on: A549 NSCLC
ACHN renal = tested on: ACHN renal
BT-549 breast = tested on: BT-549 breast
CAKI-1 renal = tested on: CAKI-1 renal
COLO 205 colon = tested on: COLO 205 colon
DU-145 prostate = tested on: DU-145 prostate
EKVX NSCLC = tested on: EKVX NSCLC
HCC-2998 colon = tested on: HCC-2998 colon
HCT-15 colon = tested on: HCT-15 colon
HL-60(TB) leukemia = tested on: HL-60(TB) leukemia
HOP-62 NSCLC = tested on: HOP-62 NSCLC
HOP-92 NSCLC = tested on: HOP-92 NSCLC
HS 578T breast = tested on: HS 578T breast
HT29 colon = tested on: HT29 colon
IGROV1 ovarian = tested on: IGROV1 ovarian
K-562 leukemia = tested on: K-562 leukemia
KM12 colon = tested on: KM12 colon
LOX IMVI melanoma = tested on: LOX IMVI melanoma
M14 melanoma = tested on: M14 melanoma
MALME-3M melanoma = tested on: MALME-3M melanoma
MCF7 breast = tested on: MCF7 breast
MDA-MB-435 = tested on: MDA-MB-435
MDA-MB-468 breast = tested on: MDA-MB-468 breast
MOLT-4 leukemia = tested on: MOLT-4 leukemia
NCI-H226 lung = tested on: NCI-H226 lung
NCI-H23 lung = tested on: NCI-H23 lung
NCI-H460 lung = tested on: NCI-H460 lung
NCI-H522 lung = tested on: NCI-H522 lung
OVCAR-3 ovarian = tested on: OVCAR-3 ovarian
OVCAR-4 ovarian = tested on: OVCAR-4 ovarian
OVCAR-5 ovarian = tested on: OVCAR-5 ovarian
OVCAR-8 ovarian = tested on: OVCAR-8 ovarian
PC-3 prostate = tested on: PC-3 prostate
RXF 393 renal = tested on: RXF 393 renal
SF-268 CNS = tested on: SF-268 CNS
SF-295 CNS = tested on: SF-295 CNS
SF-539 CNS = tested on: SF-539 CNS
SK-MEL-2 melanoma = tested on: SK-MEL-2 melanoma
SK-MEL-28 melanoma = tested on: SK-MEL-28 melanoma
SK-MEL-5 melanoma = tested on: SK-MEL-5 melanoma
SK-OV-3 ovarian = tested on: SK-OV-3 ovarian
SN12C renal = tested on: SN12C renal
SNB-75 CNS = tested on: SNB-75 CNS
SW-620 colon = tested on: SW-620 colon
TK-10 renal = tested on: TK-10 renal
U251 CNS = tested on: U251 CNS
UACC-257 melanoma = tested on: UACC-257 melanoma
UACC-62 melanoma = tested on: UACC-62 melanoma

`C=C1CC[C@@H]2[C@]3(C)COC(c4cn[nH]c4-c4cccc(Br)c4)O[C@@H]3CC[C@@]2(C)[C@@H]1C/C=C1/C(=O)OCC1O` (stereo not given in full) gave a GI50 (786-0 renal) of 1.92 µM, a TGI (786-0 renal) of 3.6 µM and a GI50 (A498 renal) of 20.8 µM. The TGI (A498 renal) was 35.4 µM, the GI50 (A549 NSCLC) was 3.37 µM and the TGI (A549 NSCLC) was 14.1 µM. For the same molecule, the GI50 (ACHN renal) was 1.95 µM, the TGI (ACHN renal) was 3.97 µM and the GI50 (BT-549 breast) was 1.44 µM. It also gave a TGI (BT-549 breast) of 3 µM, a GI50 (CAKI-1 renal) of 2.77 µM and a TGI (CAKI-1 renal) of 7.05 µM. It also gave a GI50 (COLO 205 colon) of 2.18 µM, a TGI (COLO 205 colon) of 4.48 µM and a GI50 (DU-145 prostate) of 3.08 µM. The TGI (DU-145 prostate) was 9.43 µM, the GI50 (EKVX NSCLC) was 2.15 µM and the TGI (EKVX NSCLC) was 4.81 µM. It also gave a GI50 (HCC-2998 colon) of 1.87 µM, a TGI (HCC-2998 colon) of 3.53 µM and a GI50 (HCT-15 colon) of 1.66 µM. It also gave a TGI (HCT-15 colon) of 3.78 µM, a GI50 (HL-60(TB) leukemia) of 1.87 µM and a TGI (HL-60(TB) leukemia) of 7.43 µM. For the same molecule, the GI50 (HOP-62 NSCLC) was 3.78 µM, the TGI (HOP-62 NSCLC) was 13.7 µM and the GI50 (HOP-92 NSCLC) was 2.21 µM. The TGI (HOP-92 NSCLC) was 5.1 µM, the GI50 (HS 578T breast) was 5.27 µM and the TGI (HS 578T breast) was 59.4 µM. The GI50 (HT29 colon) was 2.1 µM, the TGI (HT29 colon) was 4.82 µM and the GI50 (IGROV1 ovarian) was 2.72 µM. It also gave a TGI (IGROV1 ovarian) of 6.46 µM, a GI50 (K-562 leukemia) of 1.93 µM and a TGI (K-562 leukemia) of 8.65 µM. The GI50 (KM12 colon) was 2.44 µM, the TGI (KM12 colon) was 6.13 µM and the GI50 (LOX IMVI melanoma) was 1.39 µM. It also gave a TGI (LOX IMVI melanoma) of 2.7 µM, a GI50 (M14 melanoma) of 2.52 µM and a TGI (M14 melanoma) of 7.22 µM. It also gave a GI50 (MALME-3M melanoma) of 1.93 µM, a TGI (MALME-3M melanoma) of 4.25 µM and a GI50 (MCF7 breast) of 1.28 µM. It also gave a TGI (MCF7 breast) of 3.95 µM, a GI50 (MDA-MB-435) of 3.4 µM and a TGI (MDA-MB-435) of 14.1 µM. For the same molecule, the GI50 (MDA-MB-468 breast) was 1.61 µM, the TGI (MDA-MB-468 breast) was 3.22 µM and the GI50 (MOLT-4 leukemia) was 2.29 µM. The TGI (MOLT-4 leukemia) was 18.7 µM, the GI50 (NCI-H226 lung) was 1.62 µM and the TGI (NCI-H226 lung) was 3.09 µM. For the same molecule, the GI50 (NCI-H23 lung) was 1.84 µM, the TGI (NCI-H23 lung) was 3.62 µM and the GI50 (NCI-H460 lung) was 2.43 µM. It also gave a TGI (NCI-H460 lung) of 6.29 µM, a GI50 (NCI-H522 lung) of 1.9 µM and a TGI (NCI-H522 lung) of 3.77 µM. It also gave a GI50 (OVCAR-3 ovarian) of 2.02 µM, a TGI (OVCAR-3 ovarian) of 3.99 µM and a GI50 (OVCAR-4 ovarian) of 4.47 µM. For the same molecule, the TGI (OVCAR-4 ovarian) was 30.1 µM, the GI50 (OVCAR-5 ovarian) was 2.14 µM and the TGI (OVCAR-5 ovarian) was 4.72 µM. The GI50 (OVCAR-8 ovarian) was 1.88 µM, the TGI (OVCAR-8 ovarian) was 6.17 µM and the GI50 (PC-3 prostate) was 3.07 µM. For the same molecule, the TGI (PC-3 prostate) was 11.6 µM, the GI50 (RXF 393 renal) was 1.81 µM and the TGI (RXF 393 renal) was 3.26 µM. The GI50 (SF-268 CNS) was 12.6 µM, the TGI (SF-268 CNS) was 40.3 µM and the GI50 (SF-295 CNS) was 1.83 µM. For the same molecule, the TGI (SF-295 CNS) was 3.99 µM, the GI50 (SF-539 CNS) was 1.74 µM and the TGI (SF-539 CNS) was 3.22 µM. It also gave a GI50 (SK-MEL-2 melanoma) of 2.55 µM, a TGI (SK-MEL-2 melanoma) of 5.59 µM and a GI50 (SK-MEL-28 melanoma) of 1.93 µM. It also gave a TGI (SK-MEL-28 melanoma) of 3.83 µM, a GI50 (SK-MEL-5 melanoma) of 1.75 µM and a TGI (SK-MEL-5 melanoma) of 3.19 µM. For the same molecule, the GI50 (SK-OV-3 ovarian) was 5.8 µM, the TGI (SK-OV-3 ovarian) was 21.4 µM and the GI50 (SN12C renal) was 2.03 µM. It also gave a TGI (SN12C renal) of 4.78 µM, a GI50 (SNB-75 CNS) of 2.45 µM and a TGI (SNB-75 CNS) of 7.86 µM. The GI50 (SW-620 colon) was 2.22 µM, the TGI (SW-620 colon) was 5.05 µM and the GI50 (TK-10 renal) was 5.1 µM. For the same molecule, the TGI (TK-10 renal) was 18.9 µM, the GI50 (U251 CNS) was 1.81 µM and the TGI (U251 CNS) was 3.36 µM. For the same molecule, the GI50 (UACC-257 melanoma) was 2.85 µM, the TGI (UACC-257 melanoma) was 9.7 µM and the GI50 (UACC-62 melanoma) was 1.55 µM. The TGI (UACC-62 melanoma) was 3.15 µM.

From PubChem BioAssay (NCI)
